The values that follow are results of earlier work, collected in US20070148722A1, “Method for determining the concentration of thrombin inhibitors” (priority 1999, published 2007).

The target in the data set is meizothrombin (Homo sapiens, UniProt P00734). Conditions: theoretical background statement; affinity to atypical intermediate meizothrombin.

As usually defined, the Ki is the equilibrium dissociation constant of an inhibitor or competing ligand from its target. For the substance hirudin, the inhibition constant Ki was greater than 0.1 nM.
